The values that follow come from ChEMBL document CHEMBL4689842, “EUbOPEN Chemogenomics Library wave 1” (2021).

SMILES strings stand for the structures.

Common to all, as to assay type: toxicity, cell-based
The test system of data set [1] is Fibroblast. Put plainly: Incucyte cell viability with human fibroblast. Particulars: 10 µM, compound concentration 10 uM.
Data set [2] deals with U2OS. Put plainly: Incucyte cell viability with U2OS. Conditions: human, 10 µM, compound concentration 10 uM.
The test system of data set [3] is HEK-293T. The experiment in a line: Incucyte cell viability with HEK293T. Conditions: human, 10 µM, compound concentration 10 uM.
[4] abbreviates: 0 h, replicate number 2, timepoint 0 hours.
The mark [5] stands for this setting: 6 h, replicate number 1, timepoint 6 hours.
[6] abbreviates: 6 h, replicate number 2, timepoint 6 hours.
The mark [7] stands for this setting: 12 h, replicate number 1, timepoint 12 hours.
The mark [8] stands for this setting: 18 h, replicate number 1, timepoint 18 hours.
The mark [9] stands for this setting: 18 h, replicate number 2, timepoint 18 hours.
The mark [10] stands for this setting: 24 h, replicate number 1, timepoint 24 hours.
[11] abbreviates: 24 h, replicate number 2, timepoint 24 hours.
The mark [12] stands for this setting: 0 h, replicate number 1, timepoint 0 hours.
[13] abbreviates: 12 h, replicate number 2, timepoint 12 hours.
Further: filed as whole numbers so only -1 and 0 and 1 occur.

Regarding `CC(C)CC(=O)N1CCc2nc(-c3ccc(Br)cc3)nc(N(C)Cc3ccccc3)c2C1` [THPP-1-NC], the “Growth Rate” value is on record as 0 in data set [1] (setting [4]); 1 in data set [1] (setting [5]); 0 in data set [1] (setting [6]); 0 in data set [1] (setting [7]); 1 in data set [1] (setting [8]); 0 in data set [1] (setting [9]). Also, the “Growth Rate” value in data set [1] (setting [10]) stood at 1; in data set [1] (setting [11]) it was 0; in data set [2] (setting [12]), 0; in data set [2] (setting [5]) it was 1; in data set [2] (setting [6]), 0; in data set [2] (setting [7]), 0. For the same molecule, the “Growth Rate” value came out at 0 in data set [2] (setting [8]); 1 in data set [2] (setting [9]); 0 in data set [2] (setting [10]); 0 in data set [3] (setting [12]); 1 in data set [3] (setting [4]); 0 in data set [3] (setting [6]). Moreover, the “Growth Rate” value in data set [3] (setting [13]) came to 0; in data set [3] (setting [9]) it was 1; in data set [3] (setting [10]) it was 1; in data set [3] (setting [11]), 0.
For the molecule `Cc1cnc(-c2cc(Cl)ccc2F)cc1-n1c(=O)n(CC(N)=O)c2cnccc21` [TP-008], the “Growth Rate” value in data set [1] (setting [4]) is 0; in data set [1] (setting [5]), 1; in data set [1] (setting [7]), 0; in data set [1] (setting [13]), 1; in data set [1] (setting [8]) it was 0; in data set [1] (setting [9]), 1. The “Growth Rate” value in data set [1] (setting [10]) was 1; in data set [1] (setting [11]) it was 0; in data set [2] (setting [4]), 0; in data set [2] (setting [5]), 1; in data set [2] (setting [7]), 0; in data set [2] (setting [13]), 1. The “Growth Rate” value in data set [2] (setting [8]) is 0; in data set [2] (setting [9]), 1; in data set [2] (setting [10]), 1; in data set [3] (setting [12]), 0; in data set [3] (setting [4]), 1; in data set [3] (setting [6]) it was 1. Further, the “Growth Rate” value in data set [3] (setting [13]) and in data set [3] (setting [11]) was 1 throughout.
On to `N#Cc1ccc(Nc2ccc3[nH]c(=O)[nH]c3c2)c(Cl)c1` [TP-021n], for which the “Growth Rate” value stood at 1 in data set [1] (setting [4]); 0 in data set [1] (setting [5]); 0 in data set [1] (setting [7]); 0 in data set [1] (setting [8]); 1 in data set [1] (setting [9]); 0 in data set [1] (setting [10]). The “Growth Rate” value in data set [2] (setting [12]) was 1; in data set [2] (setting [4]) it was 0; in data set [2] (setting [5]), 0; in data set [2] (setting [7]), 0; in data set [2] (setting [8]), 0; in data set [2] (setting [9]) it was 1. In addition, the “Growth Rate” value in data set [2] (setting [10]) was 0; in data set [3] (setting [12]) it was 0; in data set [3] (setting [4]) it was 1; in data set [3] (setting [11]), 1.
Regarding `CN1C(=O)[C@@H](N2CCc3c(nn(Cc4ccccc4)c3Br)C2=O)COc2ccccc21` [TP-030-2], the “Growth Rate” value in data set [1] (setting [5]), in data set [1] (setting [7]), in data set [1] (setting [8]), in data set [1] (setting [10]), in data set [2] (setting [12]) and in data set [2] (setting [5]) was 0 in each case. Also, the “Growth Rate” value was found to be 1 in data set [2] (setting [6]); 0 in data set [2] (setting [7]); 1 in data set [2] (setting [13]); 0 in data set [2] (setting [8]); 1 in data set [2] (setting [9]); 0 in data set [2] (setting [10]). The “Growth Rate” value came to 1 in data set [2] (setting [11]); 0 in data set [3] (setting [12]); 1 in data set [3] (setting [4]); 0 in data set [3] (setting [6]); 0 in data set [3] (setting [13]); 1 in data set [3] (setting [8]). Besides, the “Growth Rate” value in data set [3] (setting [10]) was found to be 1; in data set [3] (setting [11]) it was 0.
